# Legend:
# Format in all cases: cell-based
# K562 cells = assay: Growth assay (CellTiter-Glo), K562; settings: Homo sapiens, K562, 72 h; chronic myeloid leukemia; BRAF WT, RAS WT; 3 days
# Description: (§1) In order to determine the effects of Formula I on proliferation, a growth assay was established using melanoma cells (A375 and COLO829) and colorectal carcinoma cells (COLO205, HT-29) which each express the BRAFV600E mutation. To show selectivity over wild-type BRAF, several BRAF wild-type cell lines (K562, NOMO-1, MV-4-11 and ML-2) were also examined in the growth assay. The growth assay implemented the Promega CellTiter-Glo Luminescent Cell viability assay, which gives a luminescent readout that is proportional to the amount of ATP present in a cell sample. As ATP levels directly correlate with the number of viable cells, the luminescent signal can be used to determine the potency of Formula I to block the proliferation of the cell lines of interest.
# (§2) 1. 3,000 cells were plated in each well for cell lines A375, COLO205, COLO829, HT-29, and SK-MEL-3. 25,000 cells were plated in each well for cell lines K562, ML-2, MV-4-11, and
# (§3) NOMO-1 of a 96-well tissue-culture-treated plate (Corning #3610) in a 50 μL volume. Cells were incubated overnight at 37° C.
# (§4) 2. Each test compound was plated as an 8-point titration, using 1:3 dilutions in DMSO. The maximum concentration was about 5 mM. Dilute DMSO and test compound of Formula I 1:250 in growth media.
# 3. […]
# (§5) 4. […] Luminescence was measured on a Tecan Safire plate reader. […]
# ML-2 cells = assay: Growth assay (CellTiter-Glo), ML-2; settings: Homo sapiens, ML-2, 72 h; acute myelomonocytic leukemia; BRAF WT, KRAS-A146T; 3 days
# Description: as §1, §2, §3, §4
# 3. […]
# as §5
# [1] = tested on: pERK in A431 cells (over-expression of EGFR); assay: pERK levels in A431; settings: human SCC cell line
# Description: The compound of Formula II was also evaluated in the human SCC cell line A431 and the human breast adenocarcinoma cell line SKBR3 as these cells achieve MAPK pathway activation by upstream signals feeding into RAS (through over-expression of EGFR and HER2, respectively).
# Phospho-ERK AlphaScreen® assay: The degree of ERK phosphorylation was determined using an AlphaScreen® assay where an increase in ERK1/2 phosphorylation at Thr202/Tyr204 brought the donor and acceptor AlphaScreen® beads into close proximity, generating a signal for quantification. To determine the effects of compound treatment on phosphorylation of ERK1/2, cells were plated in a 96-well plate and treated with an 8-point titration of compound for one hour at 37° C. before lysis. To detect pERK, cell lysates were incubated with streptavidin-coated AlphaScreen® donor beads, anti-mouse IgG AlphaScreen® acceptor beads, a biotinylated anti-ERK1/2 rabbit antibody, and a mouse antibody that recognizes ERK1/2 only when it is phosphorylated on Thr202 and Tyr204. […] An increase in ERK1/2 phosphorylation at Thr202/Tyr204 brings the donor and acceptor AlphaScreen® beads into close proximity, generating a signal that can be quantified on an EnVision reader (Perkin Elmer).
# Phospho-ERK immunoblot analysis: Western blots were performed by standard techniques and analyzed on an Odyssey Infrared Scanner (Li-COR Biosciences). […]
SMILES,IC50 (K562 cells),IC50 (ML-2 cells),Change of pERK levels in A431 (in words) [1]
"O=C(c1c(F)ccc(NS(=O)(=O)N2CC[C@@H](F)C2)c1F)c1c[nH]c2ncc(-c3cnc(C4CC4)nc3)cc12 [Formula I, (3R)—N-[3-[5-(2-cyclopropylpyrimidin-5-yl)-1H-pyrrolo[2,3-b]pyridine-3-carbonyl]-2,4-difluorophenyl]-3-fluoropyrrolidine-1-sulfonamide]",> 10 µM,> 10 µM,
"CCN(C)S(=O)(=O)Nc1ccc(F)c(C(=O)c2c[nH]c3ncc(-c4cnc(C5CC5)nc4)cc23)c1F [Formula II, 5-(2-cyclopropylpyrimidin-5-yl)-3-[3-[[ethyl(methyl)sulfamoyl]amino]-2,6-difluoro-benzoyl]-1H-pyrrolo[2,3-b]pyridine]",,,did not increase pERK levels
